Source: patent publication EP0462621A2, “Use of particular compounds for manufacture of pharmaceutical formulations for treatment against various parasites, mycoplasmas, other indications and other infections” (Prendergast, Patrick Thomas, priority 1990, dated 1991)

Assays:
L donovani [1] = experiment: Leishmania promastigote (PRO) in-vitro screen; format: cell-based; conditions: Ld.
Text: (§1) Following initial infection, the amastigote is the only form present in the mammalian host, surviving and dividing in various macrophage populations. Differences between the promastigote and amastigote in form and habitat are not matched by known biochemical dissimilarities. However, the drug susceptibility of the cultured promastigote, used in many early chemotherapy screens, contrasts markedly with that of the amastigote (see Table 1, below), most importantly to the clinically used pentavalent antimonials - sodium stibogluconate (Pentostam) and meglumine antimoniate (Glucantime).
(§2) Amastigotes of Leishmania can be cultivated in a wide range of mammalian cells, some of which may be used in in-vitro screens. These include (1) a Sticker dog sarcoma (fibroblast) cell line, (2) transformed rodent macrophage cell lines, (3) primary isolated mouse peritoneal macrophages (MP mo), and (4) human monocyte-derived macrophages (HM mo). The methods are similar for all models. Amastigote or promastigote infected cells are maintained in a medium containing the drug for 4-7 days, at 37 C for L. donovani and 33-35 C for L. major and L. mexicana. Drug activity is then assessed by counting (I) the number of infected host cells and/or (II) the number of amastigotes/100 host cells.
(§3) In-vitro and in-vivo models were used to test activities of a selection of many compounds. Those activities are summarized in Tables 1-3, showing variation between systems and species. Activities measured in the MP mo and HM mo models have shown the best correlation with results obtained in hamster and mouse models.

L major/L mexicana [2] = experiment: Leishmania promastigote (PRO) in-vitro screen; format: cell-based; conditions: Lm.
Text: as §1, §2, §3

L donovani [3] = experiment: Amastigote-promastigote (AM-PRO) transformation, in-vitro; format: cell-based; conditions: Ld.
L donovani [4] = experiment: Amastigotes (AM) in cell lines, in-vitro; format: cell-based; conditions: Ld., Amastigote; further: key: - no/poor activity,; + fair/moderate activity,; ++ good/excellent activity
Text: as §2, §3

L major/L mexicana [5] = experiment: Amastigotes (AM) in cell lines, in-vitro; format: cell-based; conditions: Lm., Amastigote; further: key: - no/poor activity,; + fair/moderate activity,; ++ good/excellent activity
Text: as §2, §3

L donovani [6] = experiment: Amastigotes (AM) in mouse or human macrophages (mos), in-vitro; format: cell-based; conditions: Ld., Amastigote
Text: as §2, §3

L major/L mexicana [7] = experiment: as above; format: cell-based; conditions: Lm., Amastigote
Text: as §2, §3

L donovani [8] = experiment: Leishmania mouse/hamster models, in-vivo; conditions: Ld. Further: key: - no/poor activity,; + fair/moderate activity,; ++ good/excellent activity.
Text: as §3

L major/L mexicana [9] = experiment: Leishmania mouse/hamster models, in-vivo; conditions: Lm. Further: key: - no/poor activity,; + fair/moderate activity,; ++ good/excellent activity.
Text: as §3

L major/L mexicana [10] = experiment: Amastigote-promastigote (AM-PRO) transformation, in-vitro; format: cell-based; conditions: Lm.
[11] = system: T.b. brucei, T.b. gambiense and T.b. rhodesiense; experiment: Isolated bloodstream trypomastigote (TRY) in-vitro screen; format: cell-based
Protocol: (§4) Primary screening for new trypanocides has made extensive use of rodent systems, in which host survival time is a simple indicator of drug activity. In-vitro screens have used a variety of trypomastigote types (see Table 3, below). […] Most early in-vitro screens employed a short test in which bloodstream trypomastigotes were isolated from an infected rodent and maintained for up to 24 h in a simple drug-containing media. Two significant modifications of this technique include maintaining isolated bloodstream trypomastigotes in drug-containing media for 3-4 hours at 37° C in micro-titre plates and their subsequent viability assessed by the uptake of radiolabelled precursors or motility and infectivity to mice.
In-vitro studies on isolated bloodstream trypomastigotes were also used in the rational biochemical approaches towards the chemotherapy of T. brucei infections involving inhibitors of carbohydrate catabolism salicyl hydroxamic acid plus glycerol), of polyamine synthesis (methylgyoxal bis-guanylhydrazone and - DFMO), and of surface coat glycoprotein synthesis (Tunicamycin). In these studies, activity of the compounds are shown in-vitro and in-vivo, whereas the sensitivity of isolated bloodstream trypomastigotes to toxic oxygen radicals generated by naphthoquinones was not shown by the parasites in mice. The activity of the standard anti-trypanosomals-melarsoprol, pentamidine and suramin and tested compounds according to the present invention in in-vitro systems is shown in Table 3.
as §3

[12] = system: T.b. brucei, T.b. gambiense and T.b. rhodesiense; experiment: Cultivated bloodstream trypomastigote (TRY) in-vitro screen; format: cell-based
Text: Culture systems developed in the last decade have used mammalian cell feeder layers to support the growth of dividing populations of bloodstream trypomastigotes of T. brucei spp. Some of these systems have been used in chemotherapy studies, including; (1) bovine fibroblast culture - T. brucei models to test some standard and experimental compounds, (2) murine bone marrow culture - T.b. gambiense model to screen inosine analogues and platinum and hypolipidemic compounds, and (3) Microtus embryonic fibroblast culture (MEF) - T.b. rhodesiense model to test standard and experimental drugs. These systems give a good indication of in-vivo activity (see Table 3). They measure activity against dividing cells rather than specific macromolecular synthesis pathways and can be readily established in micro-titre plates. The MEF and bone marrow cell feeder layers can be used to grow a range of strains of T. brucei spp., offering the possibility of examining variations in drug susceptibility and resistance between strains. The presence of a feeder layer, however, limits the opportunities for the automation of these systems.
as §3

[13] = system: T.b. brucei, T.b. gambiense and T.b. rhodesiense; experiment: African trypanosomiasis mouse model, in-vivo
Protocol: as §4, §3

[14] = system: T.b. brucei, T.b. gambiense and T.b. rhodesiense; experiment: Procyclic trypomastigote (TRY) in-vitro screen; format: cell-based; further: key: - no/poor activity,; + fair/moderate activity,; ++ good/excellent activity
Protocol: as §4, §3

HIV-I = experiment: Experiment la(a): macrophage cells, HIV-I, p24 antigen capture radio-immunoassay; format: cell-based; conditions: for TITER: control titer 100000; for wells positive for HIV-I p24, LOG VIRUS DILUTION -1 / wells positive for HIV-I p24, LOG VIRUS DILUTION -2 / wells positive for HIV-I p24, LOG VIRUS DILUTION -3 / wells positive for HIV-I p24, LOG VIRUS DILUTION -4 / wells positive for HIV-I p24, LOG VIRUS DILUTION -5 / wells positive for HIV-I p24, LOG VIRUS DILUTION -6: duplicate runs
Protocol: Fresh macrophage cultures were obtained by incubation of mononuclear cells obtained from a leukopak directly in the wells of a microtiter plate having 6 wells per row. After removal of non-adherent cells, each row of the adherent macrophages was infected with 10-fold serial dilutions of HIV-I, with the use of polybrene to enhance uptake of the virus. After one to two hours, the virus inoculum was removed and replaced with fresh normal growth medium. The fresh medium for each row contained a particular concentration of AZT, dideoxy cytidine (ddC), or compound la, as indicated by the left-hand column of Table la(a). The first row of wells acted as a control, and to it was added fresh medium containing none of the three drugs. Medium levels were maintained for two to four weeks to allow replication of the virus to take place, with at least one complete fluid change to remove residual virus inoculum. The contents of each well were then tested for the level of HIV p24 antigen present using a commercially available antigen capture kit employing a radio-immunoassay which can detect as little as 10'^9gm of p24 present in a sample. The above procedure was done in duplicate runs.
The results were interpreted as follows: 2/2, for example, means that both the corresponding wells of both runs were positive for HIV-I p24, while 0/2 means that neither well was positive. The titers are given in the next to last column; where 1/2 wells was positive, an intermediate value was given to the titer that is half way between the two dilutions when calculated on a logarithmic scale. 3 µM IPA was positive in both wells at a dilution of 1/10,000 and in neither well at 1/100,000. Thus, one half log interval between 10^4 and 10^5 is 10^4.5, or 30,000.

T lymphocytes = experiment: Lymphocyte blastogenesis assay, T lymphocytes (PHA); format: cell-based, human; conditions: 100 - 1 µM (Figs. 11 and 12)
Protocol: (§5) T and B lymphocytes from normal human donors were incubated for 30 minutes at various dose levels of the compounds indicated. The lymphocytes were added in triplicate wells in gentamicin and phytohemagglutinin (PHA) (a T cell mitogen), pokeweed mitogen (PWM) (a B cell mitogen) and allogeneic mononuclear cells (mixed leukocyte cultures; MLC) or media containing the above additives. The lymphocyte blastogenesis assay is described in detail below.
(§6) The data are represented as the mean of the three replicates. The results are presented in Charts la(e) (i) and la(e) (ii) (Figs. 1 and 2). […] A reduction of both T lymphocytes' abilities to proliferate was obtained when 100 u.M or greater concentrations of IPA was added to the cell cultures. Proliferative activity of T lymphocytes by 25% at the 30 u.M concentration of IPA in the experiment.
(§7) • 1. Mononuclear cells are separated from whole blood by differential centrifugation using a synthetic separation medium, or are thawed from a cryopreserved preparation. The cells are washed and resuspended in media (RPMI - 1640, L-Glutamine 2mM, Herpes Buffer 25mM, Gentamicin 50 ug/ml, Human AB Serum-heat inactivated (56°, 30°) 20%). • 2. A viable cell count is determined. • 3. Cell concentration is adjusted to 2 x 10^6 /ml in media. • 4. The cell suspension is added to wells of a 96-well flat bottom plate in 0.1 ml aliquots (2 x 10^5 cells). • 5. The selected mitogens and/or antigens (in media without serum) are added to the cells in the wells also in 0.1 ml aliquots. • 6. The cultures are incubated for 3-7 days (depending upon the mitogen or antigen) at 37° C in a humidified 5% C02 atmosphere. • 7. Six to eight hours before termination of cultures 0.05 ml (1 µCi) of ^3HTdR sp. act 6.7 Ci/mM (20 µCi/ml stock) is added to each well. • 8. At termination of cultures the cells are harvested onto strips of scintillation-grade fibreglass paper using a multiple sample harvester. • 9. Perforated disks from the fibreglass paper of the harvested cultures are placed each into scintillation vials to which is then added 5 ml of toluene based scintillation cocktail. • 10. The vials are counted in a liquid scintillation counter for one minute where the amount of incorporated ^3HTdR is determined.
(§8) net CPM = xCPM of mitogen/antigen cultures - xCPM of media cultures.

B lymphocytes = experiment: Lymphocyte blastogenesis assay, B lymphocytes (PWM); format: cell-based, human
Protocol: as §5, §6, §7, §8

With N=C(N)c1ccc(OCCCCCOc2ccc(C(=N)N)cc2)cc1 [Pentamidine, pentamidine, reference compound] the “Activity, PRO” value (L donovani [1]) was “+ +”, the “Activity, PRO” value (L major/L mexicana [2]) was “+ +” and the “Activity, AM-PRO transform-ation” value (L donovani [3]) was “+ +”. The “Activity, AM in cell lines” value (L donovani [4]) was “-”, the “Activity, AM in cell lines” value (L major/L mexicana [5]) was “+” and the “Activity, AM in mouse or human mos” value (L donovani [6]) was “+”. The “Activity, AM in mouse or human mos” value (L major/L mexicana [7]) was “+ +”, the “Activity, mouse/ hamster models” value (L donovani [8]) was “+” and the “Activity, mouse/ hamster models” value (L major/L mexicana [9]) was “-”. For the same molecule, the “Activity, AM-PRO transform-ation” value (L major/L mexicana [10]) was “+ +”, the “activity, isolated bloodstream TRY” value [11] was “+ +” and the “activity, cultivated bloodstream TRY” value [12] was “+ +”. For the same molecule, the “activity, mouse model” value [13] was “+ +”.
For O.O.O.O.O.O.O.O.O.O=C([O-])[C@@H]1[O][Sb]2([O-])([O][Sb]34([OH])[O][C@H]([C@H](O)CO)[C@H]([O]3)[C@H](C(=O)[O-])[O]4)[O][C@H]([C@H](O)CO)[C@@H]1[O]2.[Na+].[Na+].[Na+] [Sodium stibogluconate, sodium stibogluconate, reference compound], the “Activity, AM in mouse or human mos” value (L donovani [6]) was “+ +”, the “Activity, AM in mouse or human mos” value (L major/L mexicana [7]) was “+ +” and the “Activity, mouse/ hamster models” value (L donovani [8]) was “+ +”. The “Activity, AM-PRO transform-ation” value (L major/L mexicana [10]) was “+ +”.
For Cc1ccc(C(=O)Nc2ccc(S(=O)(=O)O)c3cc(S(=O)(=O)O)cc(S(=O)(=O)O)c23)cc1NC(=O)c1cccc(NC(=O)Nc2cccc(C(=O)Nc3cc(C(=O)Nc4ccc(S(=O)(=O)O)c5cc(S(=O)(=O)O)cc(S(=O)(=O)O)c45)ccc3C)c2)c1 [Suramin, suramin, reference compound], the “activity, procyclic TRY” value [14] was “-”, the “activity, isolated bloodstream TRY” value [11] was “-,+” and the “activity, cultivated bloodstream TRY” value [12] was “+”. For the same molecule, the “activity, mouse model” value [13] was “+ +”.
Nc1ccn([C@H]2CC[C@@H](CO)O2)c(=O)n1 [ddC, dideoxycytidine, reference compound] gave an activity at 10 µM (HIV-I; Human immunodeficiency virus 1, Macrophage, drug 10 μM, titer relative to control, read-out: PERCENT OF CONTROL) of 10%, an activity at 100 µM (HIV-I; Human immunodeficiency virus 1, Macrophage, drug 100 μM, titer relative to control, read-out: PERCENT OF CONTROL) of 3% and a TITER (HIV-I; drug 10 μM) of 10000. For the same molecule, the “wells positive for HIV-I p24, LOG VIRUS DILUTION -1” value (HIV-I; drug 10 μM) was 2/2, the “wells positive for HIV-I p24, LOG VIRUS DILUTION -2” value (HIV-I; drug 10 μM) was 2/2 and the “wells positive for HIV-I p24, LOG VIRUS DILUTION -3” value (HIV-I; drug 10 μM) was 2/2. For the same molecule, the “wells positive for HIV-I p24, LOG VIRUS DILUTION -4” value (HIV-I; drug 10 μM) was 1/2, the “wells positive for HIV-I p24, LOG VIRUS DILUTION -5” value (HIV-I; drug 10 μM) was 0/2 and the “wells positive for HIV-I p24, LOG VIRUS DILUTION -6” value (HIV-I; drug 10 μM) was 0/2. The TITER (HIV-I; drug 100 μM) was 3000, the “wells positive for HIV-I p24, LOG VIRUS DILUTION -1” value (HIV-I; drug 100 μM) was 2/2 and the “wells positive for HIV-I p24, LOG VIRUS DILUTION -2” value (HIV-I; drug 100 μM) was 2/2. For the same molecule, the “wells positive for HIV-I p24, LOG VIRUS DILUTION -3” value (HIV-I; drug 100 μM) was 2/2, the “wells positive for HIV-I p24, LOG VIRUS DILUTION -4” value (HIV-I; drug 100 μM) was 0/2 and the “wells positive for HIV-I p24, LOG VIRUS DILUTION -5” value (HIV-I; drug 100 μM) was 0/2. For the same molecule, the “wells positive for HIV-I p24, LOG VIRUS DILUTION -6” value (HIV-I; drug 100 μM) was 0/2, the “reduction in T lymphocyte function” value (T lymphocytes) was 10 - 25% and the “reduction in B lymphocyte proliferative responses” value (B lymphocytes; 1 µM) was 20 -35%. The “reduction in B lymphocyte proliferative responses” value (B lymphocytes; 1000 u.M) was 80 to 85%.
